In PubChem BioAssay (NCI) one finds GI50 and TGI data, which are given here for ten molecules.

Several values for one entry are separate records, joined by “and”; a condition that tells them apart may be missing. Identical values can stand only once.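 In this assay, cells in 96-well plates receive the compound at five concentrations for 48 hours. Endpoints are linearly interpolated between the surrounding concentrations. GI50 = concentration required for 50% inhibition of growth. TGI: total growth inhibition.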

Some test systems named below: A549 NSCLC; SK-MEL-28 melanoma; 786-0 renal; U251 CNS; COLO 205 colon; NCI-H23 lung; SN12C renal; KM12 colon; SF-539 CNS; SK-MEL-5 melanoma.
Holding throughout (assay): NCI anticancer screen, dose series, 48 h

For the molecule `ClC(Cl)c1nc(-c2cccnc2)n2nc(-c3ccccc3)cc2n1`, the GI50 is 1.3 µM with A549 NSCLC; 1.71 µM in the assay on SK-MEL-28 melanoma; 3.05 µM in the assay on 786-0 renal; 1.46 µM in the assay with U251 CNS; 0.592 µM in the assay with COLO 205 colon; 0.62 µM in the assay with NCI-H23 lung. Moreover, the TGI was 9 µM in the assay with A549 NSCLC; 3.51 µM with SK-MEL-28 melanoma; over 100 µM in the assay with 786-0 renal; 5.11 µM with U251 CNS; 2.39 µM in the assay on COLO 205 colon; 2.9 µM with NCI-H23 lung.

Take `COC1CC2C=C(C)/C=C/C=C/C(=O)NC(c3ccccc3)C/C=C/CCC(O)CC(=O)C2=C1O` (stereo unspecified): the GI50 with A549 NSCLC was 0.241 µM; in the assay with SK-MEL-28 melanoma, 0.703 µM; in the assay on 786-0 renal, 0.434 µM; in the assay on U251 CNS, 0.153 µM; in the assay on SN12C renal it was 0.227 µM; with COLO 205 colon it was 0.159 µM. In addition, the GI50 in the assay with NCI-H23 lung was 0.24 µM; in the assay on KM12 colon, 0.332 µM; in the assay with SF-539 CNS it was 0.28 µM. The TGI came out at 1.15 µM in the assay on A549 NSCLC; 2.03 µM in the assay with SK-MEL-28 melanoma; 1.66 µM in the assay with 786-0 renal; 0.994 µM in the assay on U251 CNS; 1.11 µM with SN12C renal; 0.315 µM in the assay on COLO 205 colon. Also, the TGI with NCI-H23 lung came to 1.11 µM; in the assay on KM12 colon, 1.26 µM; with SF-539 CNS, 0.912 µM.

For the molecule `Cc1c(C(=O)c2ccccc2C(=O)O)c2ccccc2n1C`, the TGI in the assay with SK-MEL-5 melanoma, with A549 NSCLC, in the assay on SK-MEL-28 melanoma, in the assay with 786-0 renal, with U251 CNS and in the assay with NCI-H23 lung was over 100 µM in each case. The TGI in the assay on KM12 colon and with SF-539 CNS was over 100 µM throughout.

For the molecule `CCCCNN`, the TGI in the assay on SK-MEL-5 melanoma, in the assay on A549 NSCLC, in the assay with SK-MEL-28 melanoma, with 786-0 renal, in the assay on U251 CNS and in the assay on SN12C renal was over 100 µM in each case. For the same molecule, the TGI in the assay with COLO 205 colon, in the assay with NCI-H23 lung and with KM12 colon was over 100 µM in each case.

Take `CC(=O)OC1CC2C(C)(C)C(=O)C=C[C@]2(C)C2CCC3(C)C(c4ccoc4)C(=O)[C@H]4O[C@]43[C@]12C` (stereo partly specified): the TGI in the assay on SK-MEL-5 melanoma was 32.9 µM; in the assay on SK-MEL-28 melanoma, 32.7 µM; in the assay on 786-0 renal, 35.5 µM; with U251 CNS, 32.9 µM; in the assay with SN12C renal, 66.1 µM; in the assay on COLO 205 colon, over 100 µM. The results for the TGI in the assay on NCI-H23 lung and in the assay on SF-539 CNS were 50.4 µM and 39.9 µM, respectively.

`NC1CCN(c2nc(Nc3cccc(C(F)(F)F)c3)c3c(=O)[nH]ccc3n2)CC1`: the GI50 in the assay on SK-MEL-5 melanoma was 1.54 µM; in the assay on A549 NSCLC it was 1.34 µM; in the assay on SK-MEL-28 melanoma, 1.82 µM; in the assay with 786-0 renal, 1.24 µM; in the assay with U251 CNS, 1.73 µM; in the assay with SN12C renal, 1.37 µM. Further, the GI50 with COLO 205 colon was 1.4 µM; with NCI-H23 lung, 1.58 µM; in the assay on SF-539 CNS, 1.77 µM. Also, the TGI in the assay on SK-MEL-5 melanoma came to 2.9 µM; in the assay on A549 NSCLC, 2.99 µM; in the assay on SK-MEL-28 melanoma, 3.32 µM; with 786-0 renal, 2.55 µM; in the assay on U251 CNS, 3.55 µM; with SN12C renal, 2.8 µM. The TGI amounted to 2.82 µM in the assay on COLO 205 colon, 3.11 µM with NCI-H23 lung and 3.26 µM in the assay with SF-539 CNS.

On to `O=C(c1ccc2ncc(-c3nc(NC4CC4)ncc3F)n2c1)N1CCOCC1`, for which the GI50 in the assay on SK-MEL-5 melanoma is 2.6 µM; in the assay with A549 NSCLC it was 2.48 µM; in the assay with SK-MEL-28 melanoma it was 2.47 µM; in the assay on 786-0 renal, 3.06 µM; with U251 CNS, 2.46 µM; with SN12C renal, 2.52 µM. The GI50 with NCI-H23 lung is 2.58 µM; in the assay with KM12 colon, 2.28 µM; with SF-539 CNS it was 1.8 µM. The TGI in the assay on SK-MEL-5 melanoma is 8.53 µM; in the assay with A549 NSCLC, over 100 µM; with SK-MEL-28 melanoma, 7.6 µM; with 786-0 renal, 27.5 µM; in the assay on U251 CNS it was over 100 µM; in the assay on SN12C renal, 11.8 µM. For the same molecule, the figures for the TGI with NCI-H23 lung, in the assay on KM12 colon and with SF-539 CNS were 9.68 µM, 11.8 µM and 4.79 µM, respectively.

Turning to `C1CCN(c2nsc(N3CCCCC3)n2)CC1`, the TGI in the assay with SK-MEL-5 melanoma, in the assay with A549 NSCLC, with SK-MEL-28 melanoma, in the assay on 786-0 renal, in the assay with U251 CNS and in the assay on SN12C renal was over 100 µM throughout. The TGI in the assay on NCI-H23 lung, with KM12 colon and with SF-539 CNS was over 100 µM in each case.

As to `CO/C1=C\C(C)=C\C(C)C(O)C(C)C/C(C)=C/C=C/C(OC)C(C(C)C(O)C(C)C2(O)CC(O)C(C)C(C(C)C)O2)OC1=O` (stereo unspecified), the TGI is 0.00177 µM in the assay with SK-MEL-5 melanoma; 0.0222 µM and 0.0105 µM in the assay with A549 NSCLC; 23.5 µM with SK-MEL-28 melanoma; 10.4 µM in the assay on 786-0 renal; 17 µM in the assay with U251 CNS; 17.6 µM in the assay on SN12C renal. For the same molecule, the TGI with NCI-H23 lung turned out to be 15 µM; in the assay with KM12 colon, 15 µM; with SF-539 CNS it was 0.0827 µM.

As for `CCOC(=O)C1(Cc2ccccc2)CCCCCN1` (stereo unspecified), the TGI in the assay with A549 NSCLC, with SK-MEL-28 melanoma, with 786-0 renal, in the assay with U251 CNS, in the assay with SN12C renal and in the assay with COLO 205 colon was over 100 µM each time. This molecule also registered a TGI in the assay with NCI-H23 lung of over 100 µM.
